Patent US20040010116A1, “Minicell display and products therefrom” (Children's Medical Center Corp., priority 2002, published 2004)
Values belong to the substance of their own block, whether it stands above or below them. Where no end group is shown, it is not given here.

Columns and labels:
Heparin binding = assay: Heparin binding
Description: (§1) Several screening methods were utilized. Most of the methods follow a similar protocol outlined below.
(§2) A tertiary library may be constructed from a third round of screening and those peptides selected may be used in functional screening assays to further isolate peptides of specific activity.

[1] = test system: cell/collagen interaction; assay: Cell/collagen interaction; assay type: cell-based
Description: as §1, §2

[2] = Induction of apoptosis and cell death; assay type: cell-based
invasion complex = assay: Invasion complex binding, in vitro studies
Description: SEQ ID NO: 55 ([…] is a peptide derived and modified from a parent peptide isolated using minicell display. The design objective for the parent peptide was to generate a mini protein with the mechanistic advantages of taxol, but devoid of the toxicity and side effects of taxol-type drugs.

[3] = test system: integrin signaling, CD44 signaling, rhoB; assay: Integrin/CD44 signaling and microtubule stabilization in vivo
melanoma cell = assay: Melanoma cell attachment; assay type: cell-based
Description: as §1, §2

eosinophils = assay: Activation of apoptosis in eosinophils; assay type: cell-based; settings: versus control
Description: SEQ ID NO: 56 (Acetylated-GRGENPS) activates apoptosis in eosinophils. […] Fibronectin in combination with SEQ ID NO: 56 further increased the percentage of apoptotic cells by roughly 70%.

collagenase = assay: Collagenase induction; assay type: cell-based
Description: as §1, §2

Endothelial cell = Endothelial cell attachment; assay type: cell-based
Description: as §1, §2

[4] = test system: neutrophils, endothelium, fibrosarcomas melanoma; assay: Neutrophils, endothelium, fibrosarcomas, melanoma attachment; assay type: cell-based
Description: as §1, §2

cell-cell = assay: Cell-cell adhesion; assay type: cell-based
Description: as §1, §2

alpha4 integrin = target: T1, alpha4 integrin (Homo sapiens, UniProt P13612); assay: alpha4 integrin binding
T1 sequence (P13612 34-1032): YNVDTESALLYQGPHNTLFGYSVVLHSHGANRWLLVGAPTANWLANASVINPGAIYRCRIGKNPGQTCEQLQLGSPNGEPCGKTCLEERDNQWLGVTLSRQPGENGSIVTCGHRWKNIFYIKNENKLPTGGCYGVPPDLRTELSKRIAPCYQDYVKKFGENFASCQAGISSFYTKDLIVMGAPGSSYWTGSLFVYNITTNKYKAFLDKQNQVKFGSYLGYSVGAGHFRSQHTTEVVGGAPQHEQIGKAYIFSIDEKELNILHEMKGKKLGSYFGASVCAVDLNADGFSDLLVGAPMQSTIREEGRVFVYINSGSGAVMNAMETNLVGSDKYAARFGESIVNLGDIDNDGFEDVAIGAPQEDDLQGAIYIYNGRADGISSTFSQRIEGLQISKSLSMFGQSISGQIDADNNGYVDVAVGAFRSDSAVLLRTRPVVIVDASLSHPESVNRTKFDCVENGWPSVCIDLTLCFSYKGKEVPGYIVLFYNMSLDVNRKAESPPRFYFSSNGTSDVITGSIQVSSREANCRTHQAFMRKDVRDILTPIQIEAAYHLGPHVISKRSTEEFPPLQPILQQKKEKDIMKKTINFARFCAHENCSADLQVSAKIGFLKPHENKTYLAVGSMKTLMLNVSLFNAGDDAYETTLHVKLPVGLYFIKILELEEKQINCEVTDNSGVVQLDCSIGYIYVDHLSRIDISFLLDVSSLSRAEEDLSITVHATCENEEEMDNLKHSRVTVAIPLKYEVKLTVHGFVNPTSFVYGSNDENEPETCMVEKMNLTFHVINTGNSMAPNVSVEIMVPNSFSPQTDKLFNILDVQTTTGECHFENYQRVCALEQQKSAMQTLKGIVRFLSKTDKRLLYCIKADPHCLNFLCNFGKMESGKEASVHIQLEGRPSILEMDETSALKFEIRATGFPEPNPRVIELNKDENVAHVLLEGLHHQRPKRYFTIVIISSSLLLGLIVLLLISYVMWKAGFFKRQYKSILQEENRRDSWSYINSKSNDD
Description: as §1, §2

tumor cells [5] = assay: Apoptosis of tumor cells; assay type: cell-based
Description: as §1, §2

fibroblast = assay: Fibroblast attachment; assay type: cell-based
Description: as §1, §2

CD44 = CD44 (Homo sapiens, UniProt P16070); assay: CD44 interaction with GAG; assay type: binding
CD44, sequence (P16070 21-742, species assumed): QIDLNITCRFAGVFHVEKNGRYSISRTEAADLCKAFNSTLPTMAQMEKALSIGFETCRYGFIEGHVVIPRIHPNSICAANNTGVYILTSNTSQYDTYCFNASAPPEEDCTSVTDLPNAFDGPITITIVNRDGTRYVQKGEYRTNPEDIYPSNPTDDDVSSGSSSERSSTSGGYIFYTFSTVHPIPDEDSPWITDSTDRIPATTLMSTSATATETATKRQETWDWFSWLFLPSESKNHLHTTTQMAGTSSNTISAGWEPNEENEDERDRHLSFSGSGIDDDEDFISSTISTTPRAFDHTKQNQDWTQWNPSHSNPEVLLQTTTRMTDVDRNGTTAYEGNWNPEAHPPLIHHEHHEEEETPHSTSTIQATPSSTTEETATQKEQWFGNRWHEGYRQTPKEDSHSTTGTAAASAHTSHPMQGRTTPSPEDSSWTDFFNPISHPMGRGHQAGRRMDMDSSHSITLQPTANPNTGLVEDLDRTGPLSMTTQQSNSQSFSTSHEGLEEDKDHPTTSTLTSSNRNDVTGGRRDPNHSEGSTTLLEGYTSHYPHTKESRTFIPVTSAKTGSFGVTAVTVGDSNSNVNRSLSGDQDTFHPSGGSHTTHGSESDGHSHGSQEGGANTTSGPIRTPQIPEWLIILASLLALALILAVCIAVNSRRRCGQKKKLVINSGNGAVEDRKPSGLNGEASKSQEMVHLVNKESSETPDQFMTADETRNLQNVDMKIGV
Description: as §1, §2

cell = assay: Cell entry of peptides; assay type: cell-based
Description: as §1, §2

macrophage = assay: Macrophage recruitment by osteopontin, C5a, fibronectin (activity assay of minicell display peptides); assay type: cell-based
Description: as §1, §2

β integrin = β integrin binding
Description: as §1, §2

[6] = Tolerability of the peptide in animals; assay type: in vivo
Experimental: To evaluate that effectiveness of SEQ ID NO: 54 against primary tumor growth and metastasis, 1×10^7 cells were injected subcutaneously into the left flank of nude mice. After six weeks the resulting tumors were aseptically dissected out, minced and 1 mm-tumor pieces were transplanted into the right flank of nude mice using a trocar needle. Two weeks later, when tumors were measured approximately 10 mm, mice were assigned to different experimental groups. One group of 24 animals bearing MDA-MB-231 xenografts were divided into 3 groups that received the following treatments one group of 8 animals received a weekly injection of apoptotic peptide (0.3-100 μg/kg for SEQ ID NO: 54) through the peritoneal cavity. […] Tumors were measured once every two days with microcalipers, and tumor volume was calculated as length×width×height×0.5236. Body weights were measured on the day of the injection, 4 days later and weekly thereafter. […] Total leukocyte and platelet counts were determined manually using a hemocytometer. […] Treatment-related toxicity was evaluated based on the differences in body weight, liver and kidney marker enzymes and the hematological parameters between treatment groups. […] Liver, heart, uterus, ovaries, lungs spinal cord and all long bones were evaluated histologically. […]

tumor cells [7] = assay: Homotypic aggregation of tumor cells; assay type: cell-based
Description: as §1, §2

FUNCTIONAL ACTIVITY: heparin binding (Heparin binding): Inhibits heparin binding
Substance: DSVAYGLKSK [SEQ ID NO:15]

Substance: DRDRAWGYC [SEQ ID NO:10]
FUNCTIONAL ACTIVITY: cell/collagen interaction [1]: Inhibits cell/collagen

Substance: ESHQKYGYCGGCDRNNP [SEQ ID NO:13]
FUNCTIONAL ACTIVITY: cell/collagen interaction [1]: Inhibits cell/collagen

Substance: PYAGRGDSVVYGLKKKNNQKAEPLIGRKKTR [SEQ ID NO: 55]
Apoptosis and cell death [2]: induces apoptosis and cell death
Binding to the invasion complex (invasion complex): binds to the invasion complex
Integrin signaling versus CD44 signaling [3]: uncouple integrin signaling from CD44 signaling
Microtubules ([3]; by down stream activation of rhoB): stabilization of microtubules

Substance: HKFVHWKKPVLPSQNNQ [SEQ ID NO:39]
FUNCTIONAL ACTIVITY: melanoma cell attachment (melanoma cell): Inhibits melanoma cell

Substance: Acetylated-GRGENPS (Ac-GRGENPS) [SEQ ID NO: 56]
Increase of the percentage of apoptotic cells (eosinophils): roughly 20%

Substance: LVPSSKGRGDYLAQSQP [SEQ ID NO:36]
FUNCTIONAL ACTIVITY: collagenase induction (collagenase): collagenase induction

Substance: DPGYIGSR [SEQ ID NO:41]
FUNCTIONAL ACTIVITY: endothelial cell attachment (Endothelial cell): Inhibits endothelial cell

Substance: KGMNYTVR [SEQ ID NO:40]
FUNCTIONAL ACTIVITY: neutrophils, endothelium, fibrosarcomas melanoma attachment [4]: Inhibits, neutrophils,

Substance: RRSRSSTGKKQKSSQSRKTA [SEQ ID NO:51]
FUNCTIONAL ACTIVITY: Anti-adhesion (cell-cell) (cell-cell): Anti-adhesion (cell-cell)

FUNCTIONAL ACTIVITY: alpha4 integrin binding (alpha4 integrin): Inhibits alpha4 integrin
Substance: LDSAS [SEQ ID NO:20]

Substance: KRSR [SEQ ID NO:53]
FUNCTIONAL ACTIVITY: Apoptotic to tumor cells (tumor cells [5]): Apoptotic to tumor cells

Substance: PNGRGESLAY [SEQ ID NO:37]
FUNCTIONAL ACTIVITY: collagenase induction (collagenase): inhibits collagenase induction
FUNCTIONAL ACTIVITY: fibroblast attachment (fibroblast): Inhibits fibroblast attachment,

Substance: VLPTPTPPGYLSSRSSR [SEQ ID NO:42]
FUNCTIONAL ACTIVITY: endothelial cell attachment (Endothelial cell): Inhibits endothelial cell

Substance: KKGKKSKRS [SEQ ID NO:50]
FUNCTIONAL ACTIVITY: Anti-adhesion (cell-cell) (cell-cell): Anti-adhesion (cell-cell)

Substance: DQDQRWGYC [SEQ ID NO:9]
FUNCTIONAL ACTIVITY: cell/collagen interaction [1]: Inhibits cell/collagen

FUNCTIONAL ACTIVITY: alpha4 integrin binding (alpha4 integrin): Inhibits alpha4 integrin
Substance: SDV [SEQ ID NO:24]

FUNCTIONAL ACTIVITY: CD44 interaction with GAG (CD44): Inhibits CD44 interaction with
Substance: KNNQKSEPLIGRKKT [SEQ ID NO:43]

Substance: DDDRKWGFC [SEQ ID NO:8]
FUNCTIONAL ACTIVITY: cell/collagen interaction [1]: Inhibits cell/collagen

Substance: KKAKKSRRS [SEQ ID NO:49]
FUNCTIONAL ACTIVITY: Anti-adhesion (cell-cell) (cell-cell): Anti-adhesion (cell-cell)

FUNCTIONAL ACTIVITY: heparin binding (Heparin binding): Inhibits heparin binding
Substance: DSVAYGLKSRSK [SEQ ID NO:16]

Substance: CVVVLVL [SEQ ID NO: 19]
FUNCTIONAL ACTIVITY: cell entry of peptides (cell): Promotes cell entry of peptides

Substance: DRQWGLC [SEQ ID NO:11]
FUNCTIONAL ACTIVITY: cell/collagen interaction [1]: Inhibits cell/collagen

FUNCTIONAL ACTIVITY: alpha4 integrin binding (alpha4 integrin): Inhibits alpha4 integrin
Substance: AADVESPS [SEQ ID NO:22]

Substance: VLEP [SEQ ID NO:7]
FUNCTIONAL ACTIVITY: macrophage recruitment by osteopontin, C5a, fibronectin (macrophage): Inhibitor of macrophage

FUNCTIONAL ACTIVITY: β integrin binding (β integrin): β integrin binding
Substance: TPVVPTVDTYDGRGDSLAY [SEQ ID NO:27]

Substance: Ac-DKMLDP [SEQ ID NO: 54, DKMLDP]
Therapeutic index [6]: high
Tolerability of relatively high doses ([6]; more than ten fold the optimum effective dose): no deleterious effects

Substance: HGRFILPWWYAFSPS [SEQ ID NO:48]
FUNCTIONAL ACTIVITY: homotypic aggregation of tumor cells (tumor cells [7]): Inhibit homotypic aggregation

Substance: DRYLKFRPV [SEQ ID NO:38]
FUNCTIONAL ACTIVITY: melanoma cell attachment (melanoma cell): Inhibits melanoma cell

FUNCTIONAL ACTIVITY: alpha4 integrin binding (alpha4 integrin): Inhibits alpha4 integrin
Substance: EPEESDVGGAADYP [SEQ ID NO:25]

FUNCTIONAL ACTIVITY: CD44 interaction with GAG (CD44): Inhibits CD44 interaction with
Substance: YYWRQQQKSDPVVSRRRSPS [SEQ ID NO:44]

FUNCTIONAL ACTIVITY: heparin binding (Heparin binding): Inhibits heparin binding
Substance: DSVVYGLRSK [SEQ ID NO:14]

FUNCTIONAL ACTIVITY: alpha4 integrin binding (alpha4 integrin): Inhibits alpha4 integrin
Substance: WTGGDDSGSPSSPS [SEQ ID NO:23]

Substance: DGGRGDSLGWYRRGRGGARRSKAKKAAAKNNQKSEPLIGRKKT [SEQ ID NO:52]
FUNCTIONAL ACTIVITY: Apoptotic to tumor cells (tumor cells [5]): Apoptotic to tumor cells

Substance: GRGDNPS [SEQ ID NO:35]
FUNCTIONAL ACTIVITY: collagenase induction (collagenase): collagenase induction

FUNCTIONAL ACTIVITY: alpha4 integrin binding (alpha4 integrin): Inhibits alpha4 integrin
Substance: QESPSGTDLLVAGSSP [SEQ ID NO:26]

Substance: fibronectin [reference compound]
Change of the percentage of apoptotic cells (in words) (eosinophils): decreased the percentage of apoptotic cells

Substance: DADQKFGFC [SEQ ID NO:12]
FUNCTIONAL ACTIVITY: cell/collagen interaction [1]: Inhibits cell/collagen

FUNCTIONAL ACTIVITY: alpha4 integrin binding (alpha4 integrin): Inhibits alpha4 integrin
Substance: LDSPPAALS [SEQ ID NO:21]
